The values that follow come from patent EP4570800A1, “CRYSTAL FORM OF PYRIDINOPYRIMIDINONE COMPOUND, ACID SALT THEREOF, CRYSTAL FORM OF ACID SALT THEREOF, AND USE” (Wuhan Humanwell Innovative Drug Research and Development …, priority 2022, dated 2024).

The structures appear in SMILES notation.

For data set [1], the system named is ERK phosphorylation level in DLD-1 cells. Kind of data set: Inhibition of ERK phosphorylation level in DLD-1 cells (intracellular western blot). Format: cell-based. Particulars: Homo sapiens. On the procedure: Intracellular western blot quantitative analysis was used to detect the inhibitory level of compounds on ERK phosphorylation in DLD-1 cells.
DLD-1 cells (ATCC, CCL-221) were seeded in a T75 culture flask at 2.5 × 10^6 cells/flask, and cultured in a RPMI 1640 medium containing 10% FBS for 2 days. On day 3, the cells were seeded on a 384-well plate, and cultured overnight at 37°C, 5% CO2. After overnight culture, the plate was added with serially diluted compounds (the final content of DMSO was 0.5%), the negative group was added with DMSO, and incubated in a 37°C, 5% CO2 incubator.
The cells were fixed, washed once with PBS, treated to disrupt membranes, and blocked at room temperature for 1 h. The blocking solution was removed. The plate was added with primary antibody (CST, Cat. No. #4370S), and incubated overnight at 4°C. The plate was washed 3 times with PBST (PBS solution added with 0.05% Tween-20), and soaked for 2 min each time. The plate was added with secondary antibody (LI-COR, Cat. No. 926-32211), and incubated at room temperature in the dark. The plate was washed 3 times with PBST, and soaked for 2 min each time. The plate was centrifuged at 1000 rpm for 1 min, scanned on a two-color infrared laser imaging system (Odyssey® CLX) to read the signal. Relative signal = 800-channel signal values/700-channel signal values. […]
(§1) IC50 values were calculated using Graphpad 5 software.

In the next data set the test system is H358 cells. The data set can be described thus: Inhibition of 3D cell proliferation (3D CellTiter-Glo). Type of data set: cell-based. Particulars: Homo sapiens, NCI-H358, 168 h; 3D cell proliferation in H358 cells, 7 days culture, 3D CellTiter-Glo. On the procedure: H358 cells were seeded in a T75 culture flask, and cultured in a RPMI 1640 medium containing 10% FBS for 2 days for subsequent experiments in which the cells would be cultured or seeded on a 384-well plate.
On day 1, the cells were seeded on the 384-well plate, with 40 µL of medium added per well and serially diluted compounds or DMSO added per well, and an additional well without seeded cells but with medium was set up as a blank control. After culture at 37°C, 5% CO2 for 7 days, the plate was added with 3D CellTiter-Glo reagent (Promega, Cat. No. G9683) on day 8, shaken at 320 rpm for 20 min, and left at room temperature for 2 h. Luminescence signals were read on a multifunctional microplate reader. Cell viability inhibition rate was calculated as: [formula]
as §1
(In ATP-based viability assays light output follows the ATP content of the culture.)

Data set [2] can be described thus: Human liver microsome stability test. Type of data set: in vitro ADME. To be noted: human liver microsomes, incubation for 30 min, 37°C. How it is done:
The human liver microsome stability test was performed by incubating the compound and human liver microsomes in vitro. First, the compound to be tested was prepared into a 10 mM stock solution in DMSO solvent, and then the compound was diluted to 0.5 mM with acetonitrile. Human liver microsomes (Corning) were diluted with PBS into a microsome/buffer solution, and the solution was used to dilute 0.5 mM compound into a working solution, in which the concentration of the compound was 1.5 µM, and the concentration of human liver microsomes was 0.75 mg/mL. A deep-well plate was taken, 30 µL of the working solution was added per well, and then 15 µL of pre-heated 6 mM NADPH solution was added thereto to initiate a reaction, and the reaction was incubated at 37°C. At 0, 5, 15, 30, and 45 min of the incubation, 135 µL of acetonitrile was added to the corresponding wells to terminate the reaction. After the reaction was terminated with acetonitrile at the last time point of 45 min, the deep-well plate was vortexed for 10 min (600 rpm/min), and then centrifuged for 15 min. After centrifugation, the supernatant was collected, and added with purified water in a ratio of 1:1 to perform LC-MS/MS detection. A ratio of a peak area of compound to a peak area of internal standard at each time point was obtained, and the peak area ratios of the compound at 5, 15, 30, and 45 min were compared with the peak area ratio at 0 min to calculate the remaining percentage of the compound at each time point. T1/2 was calculated by using GraphPad 5 software.

Data set [3] can be described thus: Hygroscopicity by dynamic vapor sorption (DVS). Type of data set: physicochemical. To be noted: 25°C. How it is done:
The dynamic vapor sorption (DVS) curve was collected on DVS IntrInsic from SMS (surface measurement systems). The relative humidity at 25°C was corrected using the deliquescence points of LiCl, Mg(NO3)2, and KCl.
Starting from 0%RH or room humidity, the test collected the mass change percentage of the sample as the humidity changed (0%RH to 95%RH) under constant temperature conditions of 25°C.

A short description of data set [4]: Solid state stability (XRPD and HPLC). Format: physicochemical. Particulars: for HPLC results Purity (area%) / Crystal form: listed as Crystal form A of compound of formula I. On the procedure:
The purity test, dynamic solubility test, and stability test in the assay were measured with an Agilent 1260 high-performance liquid chromatograph, and the salt formation molar ratio of ions was tested by ion chromatography, and the analytical conditions are shown in Table 5 and Table 6.
Table 56 Summary of solid state stability evaluation

Data set [5] in a line: Influence of vacuum drying conditions on crystal form A (XRPD, HPLC purity). Format: physicochemical. On the procedure:
In order to evaluate the influence of the drying conditions on the crystal form A of the compound of formula I, the changes of the sample before and after vacuum drying of the crystal form A of the compound of formula I under the condition of 60°C/80°C for 4 hours were respectively investigated. The XRPD, ^1H NMR, and HPLC purity of the dried sample were tested. […]

The nature of data set [6]: Dynamic solubility in water, SGF, FaSSIF and FeSSIF. To be noted: listed as Crystal form A of compound of formula I; for S: solubility: 37°C, solid feed concentration 10 mg/mL; for pH: pH value of the filtrate.
Procedure: 100 mg of NaCl and 50 mg of Triton X-100 were weighed into a 50 mL volumetric flask, and purified water was added to complete dissolution. 816 µL of 1 M hydrochloric acid was added thereto, and the pH was adjusted to 1.8 with 1 M hydrochloric acid or 1 M NaOH solution. Purified water was added to make up to volume.
340 mg of anhydrous NaH2PO4, 42 mg of NaOH, and 620 mg of NaCl were weighed into a 100 mL volumetric flask. Purified water was added to complete dissolution. The pH was adjusted to 6.5 with 1 M hydrochloric acid or 1 M NaOH solution. Purified water was added to make up to volume. 110 mg of SIF powder was then weighed into a 50 mL volumetric flask, added with the above solution to complete dissolution and make up to volume.
About 90 mL of purified water was added to complete dissolution, and the pH was adjusted to 5.0 with 1 M hydrochloric acid or 1 M NaOH solution. Purified water was added to make up to volume. 560 mg of SIF powder was then weighed into a 50 mL volumetric flask, added with the above solution to complete dissolution and make up to volume.
Rotating mixing was carried out at 37°C at a solid feed concentration of 10 mg/mL (calculated as the compound of formula I). […] After sampling at each time point, the samples were centrifuged (10000 rpm) and filtered (0.45 µm PTFE filter head), and the HPLC concentration and pH value of the filtrate were measured.
Data set [7] deals with NCI-H1975 non-small cell lung cancer. Kind of data set: In vivo efficacy test of NCI-H1975 non-small cell lung cancer (combination with osimertinib). On the set-up: species or system mice. To be noted: 1 mg/kg, QD.
Procedure: NCI-H1975 tumor cells were cultured in an incubator at 37°C and 5% CO2 using medium containing inactivated RPMI 1640 + 10% FBS. After reaching a confluency rate of 80 to 90%, the cells were passaged by subculturing. After one week of adaptive feeding in mice, NCI-H1975 cells in logarithmic phase were inoculated subcutaneously into the right flank of mice at a concentration of 5 × 10^6/100 µL. Tumor growth was regularly monitored until the tumors reached an average volume of 100 to 150 mm^3. […] Tumor size and animal weight were measured and recorded before and during the administration process. The differences in tumor size between the model group and administration group were compared to determine the efficacy.

Broadly, the IC50 is the point on the concentration scale where inhibition reaches its midpoint. A high value points to a need for much substance. In the case of `Cc1nc(N[C@H](C)c2cccc(C(F)(F)F)c2C)c2cn(C3(CF)CC3)c(=O)cc2n1` [Control compound 1, reference compound], the IC50 in data set [1] came to 72 nM; with H358 cells it was 13 nM. In data set [2], the “Remaining percentage (%) of compound after incubation for 30 min” value is on record as 70.2%.
Regarding `Cc1nc(N[C@H](C)c2cccc(S(F)(F)(F)(F)F)c2)c2cn(C3(CF)CC3)c(=O)cc2n1`, the “DVS behaviour when higher than 10% RH” value in data set [3] (higher than 10% RH) is “absorb more moisture and gain more weight with the increase of humidity”. In addition, the “DVS behaviour when lower than 10% RH” value in data set [3] (lower than 10% RH) is on record as “rapidly dehydrate”. Besides, the “HPLC results Purity (area%)” value amounted to 97.13 area% in data set [4] (25°C/60%RH/open, 1 week); 97.14 area% in data set [4] (40°C/75%RH/open, 1 week); 97.06 area% in data set [4] (Onset). Also, the Crystal form result in data set [4] (XRPD after 25°C/60%RH/open, 1 week) is on record as “Crystal form A of compound of formula I”; in data set [4] (XRPD after 40°C/75%RH/open, 1 week) it was “Crystal form A of compound of formula I”. In addition, the solid state stability result in data set [4] (open, one week at 25°C/60% RH and 40°C/75% RH) is listed as “good stability”. Further, the “Area (%) of main peak (relative retention time 1.00) After vacuum drying at 60°C” value in data set [5] (vacuum drying at 60°C for 4 hours, onset 97.07) came to 97.11%. Besides, in data set [5] (vacuum drying at 60°C/80°C for 4 hours), the “change in HPLC purity before and after drying” value is “no significant change in purity”. In data set [5] (vacuum drying at 60°C/80°C for 4 hours, then 19°C/27% RH for 10-15 min), the “crystal form after vacuum drying (XRPD)” value is “still the crystal form A of the compound of formula I”. Moreover, the “Area (%) of main peak (relative retention time 1.00) After vacuum drying at 80°C” value in data set [5] (vacuum drying at 80°C for 4 hours, onset 97.07) is 97.14%. The “S: solubility” value was 210 µg/mL in data set [6] (FaSSIF, 1 hour, 60 min); 80 µg/mL in data set [6] (FaSSIF, 4 hours, 240 min); 50 µg/mL in data set [6] (FaSSIF, 24 hours, 1440 min); 2720 µg/mL in data set [6] (FeSSIF, 1 hour, 60 min); 2880 µg/mL in data set [6] (FeSSIF, 4 hours, 240 min); 2740 µg/mL in data set [6] (FeSSIF, 24 hours, 1440 min). For the same molecule, the “S: solubility” value in data set [6] (H2O, 1 hour, 60 min) stood at 140 µg/mL; in data set [6] (H2O, 4 hours, 240 min) it was 110 µg/mL; in data set [6] (H2O, 24 hours, 1440 min), 110 µg/mL; in data set [6] (SGF, 1 hour, 60 min), 6840 µg/mL; in data set [6] (SGF, 4 hours, 240 min) it was 7670 µg/mL; in data set [6] (SGF, 24 hours, 1440 min) it was 7760 µg/mL. Besides, the pH in data set [6] (FaSSIF, 1 hour) is 6.3; in data set [6] (FaSSIF, 4 hours) it was 6.3; in data set [6] (FaSSIF, 24 hours), 6.4; in data set [6] (FeSSIF, 1 hour) it was 5.1; in data set [6] (FeSSIF, 4 hours) it was 5.1; in data set [6] (FeSSIF, 24 hours), 5.1. Moreover, the pH in data set [6] (H2O, 1 hour) amounted to 5.4; in data set [6] (H2O, 4 hours), 6.0; in data set [6] (H2O, 24 hours), 5.8; in data set [6] (SGF, 1 hour), 3.2; in data set [6] (SGF, 4 hours), 3.3; in data set [6] (SGF, 24 hours) it was 3.2.
Consider `C=CC(=O)Nc1cc(Nc2nccc(-c3cn(C)c4ccccc34)n2)c(OC)cc1N(C)CCN(C)C` [Osimertinib], for which the “Average tumor weight at the end of the treatment” value in data set [7] is given as 3.2 g.
